{"source": "paper PMC10819767", "about": "“An ADAM10 Exosite Inhibitor Is Efficacious in an In Vivo Collagen-Induced Arthritis Model” (Pharmaceuticals, 2024)", "key": {"C-reactive protein (CRP)": {"test_system": "C-reactive protein (CRP)", "assay": "RA serum marker ELISA, CRP, CIA mice", "type": "in vivo, C57 BL/6 mice", "method": "(§1) The sample size for therapeutic evaluation was calculated using power analysis based on experimental data from similar studies. In a two-sided test and setting the α value at 0.05 and desired power at 0.95, the sample size turned out to be 5 per group. We also expected deaths during the experiments; therefore, we used the formula Nt = N/1-q, where Nt is the number of mice initially used, N is the number required at the end of the study, and q is the proportion of attrition, which is generally 10%. Thus, at the end of the study period, we expected to have data from at least 6 mice per group, which is enough to attain statistical significance if it exists. Data were analyzed using a one-way ANOVA followed by Dunnett’s test compared with the vehicle control. At the end of the study, the mice were anesthetized and sacrificed using CO2 euthanasia. The hind paws of the mice were subjected to a histopathological examination, and the serum was analyzed for CRP, TNF-α, IL-6, and IL-10, as described in the below sections.\n(§2) RA serum marker analysis. Blood was collected from the tail vein, and 100 µL was used for the assays. All assays were conducted using the manufacturer’s instructions for the respective assay kits. The following assay kits were purchased: Mouse TNF-α GENLISA™ ELISA (Krishgen BioSystems cat#KB2145, Mumbai, India), Mouse IL-10 GENLISA™ ELISA (Krishgen BioSystems cat#KB2072), Mouse hsC-Reactive Protein, hs-CRP GENLISA™ ELISA (Krishgen BioSystems cat#KLM0318), Mouse IL-6 GENLISA™ ELISA (Krishgen BioSystems cat#KB2068)."}, "IL-10": {"test_system": "IL-10", "assay": "RA serum marker ELISA, IL-10, CIA mice", "type": "in vivo, C57 BL/6 mice", "method": "as §1, §2"}, "TNFα": {"test_system": "TNFα", "assay": "RA serum marker ELISA, TNFα, CIA mice", "type": "in vivo, C57 BL/6 mice", "method": "as §1, §2"}, "OPRK1": {"test_system": "OPRK1", "design": "method as in PMID 34817776", "details": "cited from earlier work"}, "multiple cell lines": {"test_system": "multiple cell lines", "design": "method as in PubChem Assay IDs 1794763-1794787, 19, 20", "details": "10 µM and up to 100 µM in some cases; ref PubChem Assay IDs 1794763-1794787, 19, 20; cited from earlier work"}, "[1]": {"details": "CID 3117694 50 mg/kg/day, indomethacin 2.5 mg/kg"}, "[2]": {"details": "all tested doses (10, 30, 50 mg/kg), vs vehicle control"}}}
{"smiles": "COc1cccc(C(=O)NNC(=O)C(=O)Nc2ccc(C)c(Cl)c2)c1", "note": "[CID 3117694]", "values": [{"measurement": "concentration of CRP in the blood of arthritic mice", "setting": "C-reactive protein (CRP); 30 and 50 mg/kg, vs vehicle control", "result": "lowers"}, {"measurement": "CRP blood level vs healthy control", "setting": "C-reactive protein (CRP); [1]", "result": "decreased the markers to the level of the healthy control"}, {"measurement": "IL-10 blood level vs healthy control", "setting": "IL-10; [1]", "result": "decreased the markers to the level of the healthy control"}, {"measurement": "concentration of IL-10 in the blood of arthritic mice", "setting": "IL-10; [2]", "result": "lowers"}, {"measurement": "TNFα blood level vs healthy control", "setting": "TNFα; [1]", "result": "decreased the markers to the level of the healthy control"}, {"measurement": "concentration of TNFα in the blood of arthritic mice", "setting": "TNFα; [2]", "result": "lowers"}, {"measurement": "activity against OPRK1", "setting": "OPRK1", "result": "inactive"}, {"measurement": "effect on cellular viability", "setting": "multiple cell lines", "result": "no effect"}]}
